Assay results as given in patent US20240384268A1, “Oligonucleotides” (Hudson Institute of Medical Research, priority 2021, published 2024).
d = 2'-deoxy (DNA); m = 2'-O-methyl

Target: cGAS (Homo sapiens, UniProt Q8N884)
Experiment: ISD70-driven IP-10 production in HT-29 cells, ELISA
Type: cell-based
Parameters: endogenous in cells
Conditions: 187.5 nM ASO overnight, ISD70 24 h

Chain of cGAS (Q8N884 whole entry): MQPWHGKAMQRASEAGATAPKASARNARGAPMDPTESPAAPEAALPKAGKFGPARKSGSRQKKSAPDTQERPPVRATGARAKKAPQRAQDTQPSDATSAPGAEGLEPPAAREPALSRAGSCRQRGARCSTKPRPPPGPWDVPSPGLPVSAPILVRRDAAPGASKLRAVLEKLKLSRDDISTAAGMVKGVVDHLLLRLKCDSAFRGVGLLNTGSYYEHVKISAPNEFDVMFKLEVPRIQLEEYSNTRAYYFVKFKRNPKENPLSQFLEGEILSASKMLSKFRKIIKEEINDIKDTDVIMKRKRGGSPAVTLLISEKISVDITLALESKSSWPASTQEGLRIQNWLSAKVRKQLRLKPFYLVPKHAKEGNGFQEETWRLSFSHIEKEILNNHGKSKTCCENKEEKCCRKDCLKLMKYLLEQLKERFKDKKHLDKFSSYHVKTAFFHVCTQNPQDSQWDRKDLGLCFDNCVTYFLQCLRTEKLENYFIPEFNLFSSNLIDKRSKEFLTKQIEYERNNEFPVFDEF

Substance: mG*mC*mA*mG*mU*C*T*C*C*A*T*G*T*C*C*mC*mA*mG*mG*mC (GCAGUCTCCATGTCCCAGGC; antisense; sugars from the 5' end m5 d10 m5, all phosphorothioate, methylation of C not given here) [[CDKN2B-AS1]2234]
- inhibition of ISD70-dependent IP-10 production (in words): robustly inhibited ISD70-dependent IP-10 production
